These results are taken from patent US20230303569A1, “HETEROCYCLIC COMPOUNDS AS THERAPEUTIC AGENTS” (Arisan Therapeutics Inc., priority 2021, published 2023).

Common to all, as to assay type: cell-based
In series [1] the target is T1, human Nav1.5 (late current) (Homo sapiens, UniProt Q14524).
T1 construct: host or cells: HEK293
Briefly: Nav1.5 Late Current Assay (QPatch HT whole-cell patch clamp, 30 nM ATX-II). To be noted: HEK293 cells stably expressing human Nav1.5, pH 7.3, late current with 30 nM ATX-II, read-out: percent inhibition hNav1.5 Late (5 uM). On the procedure:
(§1) In vitro Na+ Current Inhibition Assays were performed by Eurofins Discovery (St Charles, MO). All compound functional activity determinations were determined through electrophysiological analyses of Na+ currents in HEK293 cells expressing a stably transfected Na+ channel (human Nav1.1, 1.2, 1.3, 1.5, 1.6, 1.7, or 1.8). After harvesting with Accutase cells are maintained in serum free medium at room temperature prior to electrophysiological recording utilizing the QPatch HT automated whole-cell patch-clamp platform (Sophion Bioscience, Woburn MA). Stock solution aliquots of the test compound are prepared in DMSO at 300× the final assay concentrations, and stored at −20° C. until the day of assay. On the day of the assay, an aliquot of the stock solution is thawed and diluted into external solution (137 mM NaCl, 4 mM KCl, 1 mM MgCl2, 1.8 mM CaCl2, 10 mM HEPES, 10 mM Glucose (pH 7.3, titrated with 10M NaOH) to make final test concentrations. A final concentration of 0.33% DMSO is maintained for each concentration of the assay compounds. Internal solution for recordings of Na+ consist consists of 100 mM CsF, 45 mM CsCl, 5 mM NaCl, 10 mM HEPES, 5 mM EGTA (pH 7.3, titrated with 1M CsOH).
Onset and steady state induction of late Nav1.5 current was measured using a pulse pattern, repeated every 5 sec, consisting of a hyperpolarizing pulse to −120 mV for a 200 ms duration, depolarization to −15 mV amplitude for a 40 ms duration, followed by step to 40 mV for 200 ms and finally a 100 ms ramp (1.2 V/s) to a holding potential of −80 mV. Each concentration of compound was applied for 5 minutes. The assay was performed at room temperature. After establishing vehicle control condition, all further addition of external solutions contain 30 nM ATX-II to activate late currents. Each concentration of compound was also co-applied with 30 nM ATXII to estimate the Nav1.5 late current inhibition. […]. ATXII was used as the agonist positive control and was tested concurrently with the test compound. Ranolazine was used as the positive control and was tested concurrently with the test compound.
Nav1.5 late current was measured as the total charge flowing through the Nav1.5 channels (area under the curve) 5 ms after the Nav1.5 peak current till the end of the test pulse and as charge at their maxima during the ramp. Individual cell results were normalized to their respective vehicle control and the results were averaged. The sodium current was assessed in 30 nM ATXII as vehicle control conditions and then at the end of each five (5) minute compound application in the presence of 30 nM ATXII. Individual cell result was normalized to 30 nM ATXII vehicle control amplitude and the mean±SEM calculated for each compound concentration.

The target of series [2] is T2, human Nav1.5 (peak current) (Homo sapiens, UniProt Q14524).
T2 construct: host or cells: HEK293
Briefly: Nav1.5 Peak Current Assay (QPatch HT whole-cell patch clamp). To be noted: HEK293 cells stably expressing human Nav1.5, pH 7.3, peak current at step to -15 mV, read-out: percent inhibition hNav1.5 Peak (5 uM). On the procedure: as §1
Onset and steady state block of peak Nav1.5 current was measured using a pulse pattern, repeated every 5 sec, consisting of a hyperpolarizing pulse to −120 mV for a 200 ms duration, depolarization to -15 mV amplitude for a 40 ms duration, followed by step to 40 mV for 200 ms and finally a 100 ms ramp (1.2 V/s) to a holding potential of −80 mV. Peak current was measured during the step to −15 mV.
Each concentration of compound was applied for 5 minutes. The assay was performed at room temperature and Tetracaine was used concurrently as a positive control. Only current amplitudes in excess of 200 pA at the control stage were analyzed. The amplitude of the sodium current was calculated by measuring the difference between the peak inward current on stepping to −15 mV (i.e. peak of the current) and the leak current. The sodium current was assessed in vehicle control conditions and then at the end of each five (5) minute compound application. Individual cell result was normalized to the vehicle control amplitude and the mean±SEM calculated for each compound concentration.
A general note: The patch-clamp technique gives a direct electrical read-out from membranes.

For series [3], the target named is T3, human Nav1.8 (Homo sapiens, UniProt Q9Y5Y9).
T3 construct: host or cells: HEK293
Briefly: Two pulse assay protocol, Nav1.8. To be noted: peak current. On the procedure: as §1
(§2) Two pulse assay protocol for human Nav1.1, 1.2, 1.3, 1.5, 1.6, 1.7, and 1.8 channels. Mammalian cultured cells expressing the indicated human Nav1.1, 1.2, 1.3, 1.5, 1.6, 1.7 or 1.8 channels were assayed using the The QPatch HT (Sophion Bioscience, Woburn MA) automated system with an intracellular solution (mM) of 100 CsF, 45 CsCl, 5 NaCl, 10 HEPES, 5 EGTA (pH 7.3, titrated with 1M CsOH) and extracellular solution (mM) of 137 NaCl, 4 KCl, 1 MgCl2, 1.8 CaCl2, 10 HEPES, 10 Glucose (pH 7.3, titrated with 10M NaOH). Onset and steady state block of the sodium channel was measured using a pulse pattern, repeated every 20 seconds (s) from a holding potential of −120 mV for 100 ms, and then pulsed to 0 mV for 500 ms to inactivate the Na channels and facilitate inactivated state-dependent binding of the test compounds. The cell membranes were then stepped back to −120 mV for 10 ms to recover from inactivation into resting or closed state (channels with test compound bound to them will not recover from inactivation and will not open) before stepping to 0 mV for 50 ms (pulse 2) to measure Na channels that are available to open. Peak current was measured during the step to 0 mV at pulse 1 and 2 to measure tonic and state-dependent inhibition. Compound activities were assessed by dividing post current amplitude (at the end of each five (5) minute compound application) by the vehicle control amplitude and the mean calculated for each compound concentration. Tetracaine was used as a positive control and was tested concurrently with the test compounds. Current amplitudes in excess of 200 pA at the control stage were analyzed. The amplitude of the current was calculated by measuring the difference between the peak inward current on stepping to 0 mV (i.e. peak of the current) and remaining current at the end of the step. The current was assessed in vehicle control conditions and then at the end of each five (5) minute compound application.

For series [4], the target named is T4, human Nav1.6 (Homo sapiens, UniProt Q9UQD0).
T4 construct: host or cells: HEK293
Briefly: Two pulse assay protocol, Nav1.6. The note with it: 5 uM, peak current. The procedure, abridged:
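Whole-cell automated patch clamp on HEK293 cells stably expressing each channel; CsF-based internal, pH 7.3 HEPES external, 0.33% DMSO. Every 20 s from −120 mV: 500 ms step to 0 mV (pulse 1, tonic), 10 ms at −120 mV, then 50 ms to 0 mV (pulse 2, state-dependent); peak current versus vehicle after each 5 min application.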

Series [5] has as its target T5, human Nav1.7 (Homo sapiens, UniProt Q15858).
T5 construct: host or cells: HEK293
As to the kind of experiment: Two pulse assay protocol, Nav1.7. To be noted: peak current. On the procedure: as §1, §2

Series [6] deals with T6, human Nav1.3 (Homo sapiens, UniProt Q9NY46).
T6 construct: host or cells: HEK293
Briefly: Two pulse assay protocol, Nav1.3. To be noted: peak current. The method, then:
(§3) In vitro Na+ Current Inhibition Assays were performed by Eurofins Discovery (St Charles, MO). All compound functional activity determinations were determined through electrophysiological analyses of Na+ currents in HEK293 cells expressing a stably transfected Na+ channel (human Nav1.1, 1.2, 1.3, 1.5, 1.6, 1.7, or 1.8). After harvesting with Accutase cells are maintained in serum free medium at room temperature prior to electrophysiological recording utilizing the QPatch HT automated whole-cell patch-clamp platform (Sophion Bioscience, Woburn MA). […]
(§4) Two pulse assay protocol for human Nav1.1, 1.2, 1.3, 1.5, 1.6, 1.7, and 1.8 channels. […] Onset and steady state block of the sodium channel was measured using a pulse pattern, repeated every 20 seconds (s) from a holding potential of −120 mV for 100 ms, and then pulsed to 0 mV for 500 ms to inactivate the Na channels and facilitate inactivated state-dependent binding of the test compounds. […] Peak current was measured during the step to 0 mV at pulse 1 and 2 to measure tonic and state-dependent inhibition. Compound activities were assessed by dividing post current amplitude (at the end of each five (5) minute compound application) by the vehicle control amplitude and the mean calculated for each compound concentration. […] Current amplitudes in excess of 200 pA at the control stage were analyzed. […]

Series [7] has as its target T7, human Nav1.1 (Homo sapiens, UniProt P35498).
T7 construct: host or cells: HEK293
Briefly: Two pulse assay protocol, Nav1.1. To be noted: peak current. On the procedure:
as §3, §4

In series [8] the target is T8, human Nav1.2 (Homo sapiens, UniProt Q99250).
T8 construct: host or cells: HEK293
As to the kind of experiment: Two pulse assay protocol, Nav1.2. To be noted: peak current. On the procedure: as §1, §2

[9] abbreviates: pulse 1 (tonic), read-out: percent inhibition hNav1.6, Pulse 1 (5 uM).
Where [10] appears, read: pulse 2 (state-dependent), read-out: percent inhibition hNav1.6, Pulse 2 (5 uM).
[11] abbreviates: pulse 1 (tonic), read-out: percent inhibition hNav1.7, Pulse 1 (5 uM).
Where [12] appears, read: pulse 2 (state-dependent), read-out: percent inhibition hNav1.7, Pulse 2 (5 uM).

Read-outs that look alike come from different tables or passages of the source.

T4 sequence (Q9UQD0 whole entry): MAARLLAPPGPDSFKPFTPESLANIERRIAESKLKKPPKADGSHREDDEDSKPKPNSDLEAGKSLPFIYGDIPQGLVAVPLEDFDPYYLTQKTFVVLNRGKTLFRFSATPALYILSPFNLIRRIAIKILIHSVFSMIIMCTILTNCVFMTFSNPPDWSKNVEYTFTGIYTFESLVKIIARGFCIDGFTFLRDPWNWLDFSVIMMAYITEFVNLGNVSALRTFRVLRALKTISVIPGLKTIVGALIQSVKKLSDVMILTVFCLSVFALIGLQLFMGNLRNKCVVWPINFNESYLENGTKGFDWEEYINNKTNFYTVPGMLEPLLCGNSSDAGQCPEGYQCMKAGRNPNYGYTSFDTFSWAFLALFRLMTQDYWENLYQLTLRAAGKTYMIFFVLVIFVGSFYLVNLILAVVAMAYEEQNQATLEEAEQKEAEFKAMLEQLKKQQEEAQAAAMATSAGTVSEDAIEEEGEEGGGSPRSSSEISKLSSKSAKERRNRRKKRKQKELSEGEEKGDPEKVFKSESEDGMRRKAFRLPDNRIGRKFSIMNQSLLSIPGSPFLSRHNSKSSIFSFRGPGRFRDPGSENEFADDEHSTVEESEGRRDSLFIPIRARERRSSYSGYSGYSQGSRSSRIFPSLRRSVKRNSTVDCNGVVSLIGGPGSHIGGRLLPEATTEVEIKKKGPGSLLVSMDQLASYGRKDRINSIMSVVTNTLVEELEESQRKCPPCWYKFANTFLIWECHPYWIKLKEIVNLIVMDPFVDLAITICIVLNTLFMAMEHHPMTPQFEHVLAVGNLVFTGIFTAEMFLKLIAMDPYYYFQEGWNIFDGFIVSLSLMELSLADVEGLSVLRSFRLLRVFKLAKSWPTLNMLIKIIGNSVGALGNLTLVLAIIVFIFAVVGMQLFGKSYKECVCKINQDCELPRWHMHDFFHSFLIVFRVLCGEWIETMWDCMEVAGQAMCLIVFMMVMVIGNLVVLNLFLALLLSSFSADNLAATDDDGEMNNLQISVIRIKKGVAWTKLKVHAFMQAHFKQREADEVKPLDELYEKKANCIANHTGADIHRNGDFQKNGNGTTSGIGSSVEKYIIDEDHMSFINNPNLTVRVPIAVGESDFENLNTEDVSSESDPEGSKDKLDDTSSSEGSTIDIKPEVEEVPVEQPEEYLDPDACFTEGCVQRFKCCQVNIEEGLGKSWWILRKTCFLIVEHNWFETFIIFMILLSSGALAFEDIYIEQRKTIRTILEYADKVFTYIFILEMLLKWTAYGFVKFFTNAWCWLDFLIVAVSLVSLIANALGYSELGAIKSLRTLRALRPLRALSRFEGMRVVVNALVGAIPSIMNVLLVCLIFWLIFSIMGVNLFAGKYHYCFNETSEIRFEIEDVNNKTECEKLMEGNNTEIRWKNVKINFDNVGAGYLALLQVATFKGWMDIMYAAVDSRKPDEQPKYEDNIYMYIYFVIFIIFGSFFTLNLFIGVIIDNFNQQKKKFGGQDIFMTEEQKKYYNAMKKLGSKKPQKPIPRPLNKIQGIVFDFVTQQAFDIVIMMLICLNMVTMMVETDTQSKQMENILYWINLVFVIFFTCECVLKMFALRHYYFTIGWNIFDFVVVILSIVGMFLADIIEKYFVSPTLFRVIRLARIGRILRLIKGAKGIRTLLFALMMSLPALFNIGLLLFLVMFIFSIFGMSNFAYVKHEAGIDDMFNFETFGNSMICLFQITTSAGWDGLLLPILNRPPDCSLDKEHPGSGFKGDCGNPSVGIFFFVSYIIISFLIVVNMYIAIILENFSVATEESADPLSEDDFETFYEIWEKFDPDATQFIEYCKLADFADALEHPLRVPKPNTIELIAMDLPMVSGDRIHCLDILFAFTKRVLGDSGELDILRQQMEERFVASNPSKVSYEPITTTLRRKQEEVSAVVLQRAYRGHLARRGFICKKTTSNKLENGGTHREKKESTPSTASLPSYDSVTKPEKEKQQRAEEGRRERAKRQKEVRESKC
T5 sequence (Q15858 whole entry): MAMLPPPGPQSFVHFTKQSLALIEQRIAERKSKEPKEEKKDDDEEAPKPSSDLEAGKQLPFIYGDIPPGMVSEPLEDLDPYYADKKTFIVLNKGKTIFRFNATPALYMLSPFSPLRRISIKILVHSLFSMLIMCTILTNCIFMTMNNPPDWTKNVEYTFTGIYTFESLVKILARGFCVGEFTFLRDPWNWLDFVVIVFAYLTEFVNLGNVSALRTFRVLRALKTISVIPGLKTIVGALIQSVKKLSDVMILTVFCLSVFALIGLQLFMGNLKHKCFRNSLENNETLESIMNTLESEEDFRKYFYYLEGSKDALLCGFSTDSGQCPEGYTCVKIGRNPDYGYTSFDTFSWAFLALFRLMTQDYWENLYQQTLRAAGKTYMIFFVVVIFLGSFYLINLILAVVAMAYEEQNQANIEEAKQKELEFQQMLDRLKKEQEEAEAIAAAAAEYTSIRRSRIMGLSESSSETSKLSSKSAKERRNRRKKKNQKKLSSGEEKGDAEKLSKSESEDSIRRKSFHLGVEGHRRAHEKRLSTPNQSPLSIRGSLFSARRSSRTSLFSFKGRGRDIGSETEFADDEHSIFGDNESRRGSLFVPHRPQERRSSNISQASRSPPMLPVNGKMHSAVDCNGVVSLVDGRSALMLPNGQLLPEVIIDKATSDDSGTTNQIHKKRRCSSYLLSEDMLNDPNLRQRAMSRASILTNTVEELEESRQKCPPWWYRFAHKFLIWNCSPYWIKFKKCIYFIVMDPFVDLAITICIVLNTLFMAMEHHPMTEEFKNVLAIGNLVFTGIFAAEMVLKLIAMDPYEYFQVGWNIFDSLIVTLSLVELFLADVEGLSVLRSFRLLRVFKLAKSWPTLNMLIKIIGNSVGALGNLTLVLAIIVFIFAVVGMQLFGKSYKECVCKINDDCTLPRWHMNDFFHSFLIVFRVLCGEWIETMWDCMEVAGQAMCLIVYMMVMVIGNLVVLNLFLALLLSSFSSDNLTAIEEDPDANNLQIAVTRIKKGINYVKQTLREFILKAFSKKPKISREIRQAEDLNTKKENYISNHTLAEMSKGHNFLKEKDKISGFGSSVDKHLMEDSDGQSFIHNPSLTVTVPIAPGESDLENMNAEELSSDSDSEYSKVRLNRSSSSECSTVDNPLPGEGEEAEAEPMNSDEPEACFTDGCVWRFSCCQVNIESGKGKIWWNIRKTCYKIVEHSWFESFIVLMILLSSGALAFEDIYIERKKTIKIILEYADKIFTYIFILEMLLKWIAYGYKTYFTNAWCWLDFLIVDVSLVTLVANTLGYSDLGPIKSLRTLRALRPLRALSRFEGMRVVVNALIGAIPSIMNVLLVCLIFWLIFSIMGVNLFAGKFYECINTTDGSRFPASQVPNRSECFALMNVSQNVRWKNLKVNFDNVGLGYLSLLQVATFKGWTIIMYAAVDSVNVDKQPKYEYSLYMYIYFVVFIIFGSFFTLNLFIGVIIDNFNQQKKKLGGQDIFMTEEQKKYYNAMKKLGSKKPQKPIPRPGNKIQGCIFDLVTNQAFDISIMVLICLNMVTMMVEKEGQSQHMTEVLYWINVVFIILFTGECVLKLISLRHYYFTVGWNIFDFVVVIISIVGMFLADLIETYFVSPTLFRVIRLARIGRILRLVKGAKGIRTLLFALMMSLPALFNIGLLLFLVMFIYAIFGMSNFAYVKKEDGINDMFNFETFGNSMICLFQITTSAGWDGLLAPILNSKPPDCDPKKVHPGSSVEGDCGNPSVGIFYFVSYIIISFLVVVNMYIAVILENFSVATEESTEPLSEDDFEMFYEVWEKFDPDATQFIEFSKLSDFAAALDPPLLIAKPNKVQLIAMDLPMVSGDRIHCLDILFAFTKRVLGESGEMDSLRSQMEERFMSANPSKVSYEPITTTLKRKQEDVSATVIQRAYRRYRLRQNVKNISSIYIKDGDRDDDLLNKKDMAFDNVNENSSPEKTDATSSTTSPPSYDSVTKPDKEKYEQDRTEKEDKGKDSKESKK

For the molecule `Cc1cc2ncc(-c3ccc(OC(C)(C)C)cc3)n2cc1-c1ccc(OC(C)C)cc1` [Example C55, 3-(4-(tert-butoxy)phenyl)-6-(4-isopropoxyphenyl)-7-methylimidazo[1,2-a]pyridine], in series [1], the inhibition (commonly the change of the read-out against control, counted positive when it falls) at 5 min, 5 uM was in the range of 50 to 90%. Besides, the inhibition at 5 min, 5 µM in series [2] was below 50%. Moreover, the inhibition at 5 µM is below 50% in series [3] (pulse 1 (tonic), read-out: percent inhibition hNav1.8, Pulse 1 (5 uM)); below 50% in series [3] (pulse 2 (state-dependent), read-out: percent inhibition hNav1.8, Pulse 2 (5 uM)); below 50% in series [4] (setting [9]); above 90% in series [4] (setting [10]); below 50% in series [5] (setting [11]); 50 to 90% in series [5] (setting [12]).

On to `CC(C)Oc1ccc(-c2cnc3ccc(-c4ccc(OC(C)C)nc4)cn23)cc1` [Example C12, 2-(propan-2-yloxy)-5-{3-[4-(propan-2-yloxy)phenyl]imidazo[1,2-a]pyridin-6-yl}pyridine], for which the inhibition at 5 min, 5 uM in series [1] was above 90%. Besides, the inhibition at 5 min, 5 µM in series [2] is 50 to 90%. Besides, the inhibition at 5 µM is below 50% in series [6] (pulse 1 (tonic), read-out: percent inhibition hNav1.3, Pulse 1 (5 uM)); above 90% in series [6] (pulse 2 (state-dependent), read-out: percent inhibition hNav1.3, Pulse 2 (5 uM)); below 50% in series [7] (pulse 1 (tonic), read-out: percent inhibition hNav1.1, Pulse 1 (5 uM)); above 90% in series [7] (pulse 2 (state-dependent), read-out: percent inhibition hNav1.1, Pulse 2 (5 uM)); below 50% in series [8] (pulse 1 (tonic), read-out: percent inhibition hNav1.2, Pulse 1 (5 uM)); above 90% in series [8] (pulse 2 (state-dependent), read-out: percent inhibition hNav1.2, Pulse 2 (5 uM)). In addition, the inhibition at 5 µM in series [4] (setting [9]) was below 50%; in series [4] (setting [10]), above 90%; in series [5] (setting [11]), below 50%; in series [5] (setting [12]), above 90%.
